Results published in patent US20250057959A1, “PHOSPHANE GOLD(I)-N-HETEROCYCLIC CARBENE COMPLEXES FOR TREATING CANCER” (KING FAHD UNIVERSITY OF PETROLEUM AND MINERALS, priority 2023, published 2025).
“Also recorded” adds a separate entry of the source.

Assays:
[1] = tested on: SKOV3 cells; assay: Cytoskeleton organization, immunofluorescence confocal microscopy; type: cell-based, human; details: 24 hours treatment
Description: Cell migration was assessed using the in vitro wound healing assay. Briefly, cells were grown to confluence and then treated with complex 6. After 24 hours of treatment, the medium was removed and cells were washed then scraped with a pipet tip to create a “wound” in the monolayer and washed again. Fresh medium containing 2% FCS was added. Wounds were photographed at times 0, 24, and 48 hours using an inverted microscope (EclipseTS/100, Nikon, Instruments Europe BV Amsterdam, The Netherlands) at magnification 4. Migration was assessed by measuring the cell-free area (in pixels) with ImageJ-NIH (National Institutes of Health) tool software. The cytoskeleton organization was evaluated by culturing SKOV3 cells onto glass coverslips and performing immunofluorescence staining for α-tubulin and F-actin. SKOV3 cells were treated for 24 hours with complex 6, fixed in 4% paraformaldehyde, permeabilized with 0.5% Triton X-100, and incubated overnight with primary antibody (Table 1) at 4° C. Primary antibody was detected using the appropriate secondary antibody together with phallotoxins (Molecular Probes) and TO-PRO-3 (Thermo Fisher Scientific). Images were acquired using an SP8 confocal microscope (Leica).

[2] = tested on: A2780 and A2780cis cells; assay: Apoptosis by flow cytometry (annexin-V/7AAD, caspase-3,7, BAX, Bcl-2); type: cell-based, human
Description: Results were detected by flow cytometry on a BD FACSCanto II flow cytometer. Data were analyzed using BD FACSDiva version 8.0.1 software (BD Biosciences) unless otherwise indicated. To evaluate apoptosis, tumor cells were treated for 48 hours and then stained for 15 minutes with FITC annexin-V (Thermo Fisher Scientific) and 7AAD (BD Pharmingen). […] For B-cell lymphoma/leukemia-2 (Bcl-2) and Bcl-2 associated x protein (Bax) evaluation, cells were fixed and permeabilized using FIX & PERM cell fixation and cell permeabilization kit (Life Technologies). […] The distribution of cells in different cell cycle phases was quantified using ModFit LT 4.0 software (Verity Software House, Topsham, ME, USA).

[3] = tested on: SKOV3-MCTSs; assay: SKOV3-MCTS spheroid volume; type: cell-based, human; details: for SKOV3-MCTS volume decrease with respect to control: 0.5 μM
Description: To generate single spheroids with defined size, 1.0×10^3/mL SKOV3 cells were seeded 4 days under nonadherent conditions in U-bottom 96-well plates coated twice with 20 mg/mL of poly(2-hydroxyethyl methacrylate) (poly-HEMA; Sigma) in 95% ethanol. Spheroid size was measured at days 0, 3, and 7 after drug treatment initiation using an inverted microscope (Eclipse TS/100, Nikon, Tokyo, Japan) with photomicrographic systems DS camera control unit DS-L2. Spheroid volumes were calculated using the formula (width^2×length×3.14)/6.

[4] = molecular target: T1, 20S proteasome (Homo sapiens, UniProt P28074); assay: 20S proteasome activity in lysates of treated cells; type: cell-based; details: OvCa cells treated 24 hours
T1 construct: endogenous in cells; host or cells: A2780, A2780cis and SKOV3 ovarian cancer cells, treated for 24 h and then lysed
Description: Proteasome activity (EC 3.4.25.1) was evaluated on the same cell lysates as TrxR using the 20S proteasome activity assay kit APT280 (Merck Millipore) and a computer-interfaced GeniusPlus microplate reader (Tecan Trading AG, Switzerland). The activity was normalized to the protein concentration and expressed as a percentage of control.

[5] = tested on: A2780; assay: MTT cell viability assay, A2780; type: cell-based, human
Description: (§1) Human epithelial ovarian cancer A2780 cell line and its cisplatin-resistant clone A2780cis were obtained from Sigma-Aldrich (Milano, Italy). SKOV3 (HTB-77) cells were from the American Type Culture Collection (ATCC). The two cell lines were selected to reflect the two different stages of OvCa and different sensitivity to cisplatin. A2780 cell lines were derived from the ovarian tumor tissue of an untreated patient, while SKOV3 was from the ascitic fluids (after metastasis). Cells were authenticated in the laboratory using PowerPlex 16 HS system (Promega) and GeneMapper ID version 3.2.1 to identify DNA short tandem repeats. Cell lines were cultured in RPMI-1640 medium containing 10% fetal bovine serum (FBS) (Gibco, Thermo Fisher Scientific, U.S.A), 1% (v/v) of penicillin (10,000 units/mL)-streptomycin (10 mg/mL), and 1% (v/v) L-glutamine (200 mM) (all from Sigma- Aldrich) at 37° C. in a 5% CO2 fully humidified atmosphere. A2780cis cells were continuously exposed to 1 μM cisplatin to maintain cisplatin resistance. Adipose-derived stem cells (ADSCs) were purchased from Lonza and maintained in mesenchymal-stem-cell growth medium Bulletkit MSCGM (Lonza, Verviers, Belgium).
(§2) 4.0×10^3/mL A2780, A2780cis, and SKOV3 cells were seeded in 96-well microplates in 100 μL of culture medium. Cells were allowed to adhere for 24 hours and then were treated in triplicate with increasing concentrations of gold compounds (0-1 μM). Cisplatin was included as a reference drug. Cell viability was evaluated using 3-(4,5-dimethylthiazol-2-yl)-2,5-diphenyltetrazolium bromide (MTT) assay (Sigma-Aldrich) after 72 hours of treatment. Half maximal inhibitory concentrations (IC50) were calculated using the CalcuSyn software version 2 (Biosoft, Ferguson, MO, USA). Fold resistance was calculated as the ratio of the IC50 of the A2780cis to that of the parental cell line A2780.

[6] = tested on: SKOV3 cells; assay: MTT cell viability assay, SKOV3; type: cell-based, human; details: 72 hours treatment
Description: as §1, §2

Question: What does the source list for `CC(C)c1cccc(C(C)C)c1-n1ccn(-c2c(C(C)C)cccc2C(C)C)[c]1=[Au+][PH](C1CCCCC1)(C1CCCCC1)C1CCCCC1.F[P-](F)(F)(F)(F)F` [Complex 6, [Au(IPr)(C18H33P)] PF6]?
Answer: F-actin cytoskeleton organization [1]: irregular disposition and organization of the F-actin cytoskeleton; α-tubulin distribution [1]: did not modify α-tubulin distribution; Apoptosis (annexin-V / 7AAD positive cells) ([2]; 48 hours, complex 6 and auranofin at IC50 and IC75, cisplatin 0.15 μM and 0.50 μM): increased in a dose-dependent manner; Caspase-3,7 activation ([2]; FLICA, flow cytometry): activated caspase-3,7; BAX expression ([2]; flow cytometry): induced the proapoptotic BAX; BCL-2 expression ([2]; flow cytometry): down-regulated the antiapoptotic BCL-2; SKOV3-MCTS volume decrease with respect to control ([3]; 3 days): about 60%; SKOV3-MCTS volume decrease with respect to control ([3]; 7 days): about 75%; Effect on SKOV3-MCTSs at 1 μM ([3]; 1 μM): almost entirely diminished the SKOV3-MCTSs; also recorded: completely destroyed spheroids; also recorded: completely destroyed SKOV3-MCTSs; 20S proteasome activity [4]: decreased the 20S proteasome activity in a dose-dependent manner; IC50 ([5]; 72 hours treatment, MTT): 140 ± 10 nM; Cytotoxic activity ranking within the series ([5]; A2780 and A2780cis, Table 8): most potent; Activity compared with cisplatin or auranofin in A2780 cells ([5]; comparison of IC50, Table 8): more active than cisplatin; also recorded: more active than auranofin; IC50 [6]: 580 nM
